Assay results reported in ChEMBL document CHEMBL3217540, “New 3-amidinophenylalanine-derived inhibitors of matriptase” (Medchemcomm, 2012).

What was measured:
HEK293 = assay: Selectivity ratio of Ki for matriptase-2 (unknown origin) expressed in HEK293 cells to Ki for matriptase (unknown origin); type: cell-based; details: Homo sapiens
Prothrombin = Prothrombin (Bos taurus, UniProt P00735); assay: Inhibition of bovine thrombin using MeSO2-D-Cha-Gly-Arg-pNA as substrate
Coagulation factor X = Coagulation factor X (Homo sapiens, UniProt P00742); assay: Inhibition of human factor 10a using CH3OCO-D-Cha-Gly-Arg-pNA as substrate
Chain of Coagulation factor X (P00742 41-179 limits assumed): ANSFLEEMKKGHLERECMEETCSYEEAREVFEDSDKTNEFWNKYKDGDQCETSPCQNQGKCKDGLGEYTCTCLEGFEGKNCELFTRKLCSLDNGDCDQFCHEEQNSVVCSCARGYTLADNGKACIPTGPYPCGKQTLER
Chain of Coagulation factor X (P00742 235-488 limits assumed): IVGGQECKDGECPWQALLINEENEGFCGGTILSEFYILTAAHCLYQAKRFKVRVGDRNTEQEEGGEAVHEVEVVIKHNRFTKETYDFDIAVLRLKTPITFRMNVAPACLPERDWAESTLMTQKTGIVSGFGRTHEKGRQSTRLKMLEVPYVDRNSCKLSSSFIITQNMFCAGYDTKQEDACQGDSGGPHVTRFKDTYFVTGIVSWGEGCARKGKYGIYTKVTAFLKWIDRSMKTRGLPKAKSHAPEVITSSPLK

Homo sapiens [1] = species on record: Homo sapiens; assay: Selectivity ratio of Ki for recombinant human airway trypsin-like protease to Ki for matriptase (unknown origin)
Homo sapiens [2] = species on record: Homo sapiens; assay: Selectivity ratio of Ki for human uPA to Ki for matriptase (unknown origin)
[3] = target: T1, Transmembrane protease serine 6 (Homo sapiens, UniProt Q8IU80); assay: Inhibition of matriptase-2 (unknown origin) expressed in HEK293 cells using ln-Ala-Arg-a-Arg-para-nitroanilide as substrate by UV-vis spectrophotometry; type: cell-based
T1 sequence (Q8IU80 whole entry): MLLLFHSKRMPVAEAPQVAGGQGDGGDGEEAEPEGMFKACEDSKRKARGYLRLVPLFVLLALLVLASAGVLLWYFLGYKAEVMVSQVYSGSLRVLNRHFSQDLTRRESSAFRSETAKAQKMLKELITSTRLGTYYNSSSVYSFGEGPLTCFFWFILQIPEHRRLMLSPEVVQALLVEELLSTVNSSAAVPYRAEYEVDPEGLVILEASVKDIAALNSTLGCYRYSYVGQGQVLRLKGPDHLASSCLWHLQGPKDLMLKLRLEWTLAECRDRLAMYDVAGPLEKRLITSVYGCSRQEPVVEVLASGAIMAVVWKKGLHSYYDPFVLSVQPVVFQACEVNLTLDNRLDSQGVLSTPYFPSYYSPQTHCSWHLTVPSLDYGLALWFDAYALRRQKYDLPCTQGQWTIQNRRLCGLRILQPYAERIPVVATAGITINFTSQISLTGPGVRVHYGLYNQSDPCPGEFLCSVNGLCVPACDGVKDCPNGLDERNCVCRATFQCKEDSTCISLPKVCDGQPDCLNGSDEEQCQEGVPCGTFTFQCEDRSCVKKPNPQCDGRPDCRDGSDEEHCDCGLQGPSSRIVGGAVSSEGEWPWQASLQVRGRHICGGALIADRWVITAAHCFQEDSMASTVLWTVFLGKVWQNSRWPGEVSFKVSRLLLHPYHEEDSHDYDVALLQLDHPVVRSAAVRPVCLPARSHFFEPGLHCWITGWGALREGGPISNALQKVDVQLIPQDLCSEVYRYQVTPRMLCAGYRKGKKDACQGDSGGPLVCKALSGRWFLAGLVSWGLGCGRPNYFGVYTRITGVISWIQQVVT

[4] = target: T2, Suppressor of tumorigenicity 14 protein (Homo sapiens, UniProt Q9Y5Y6); assay: Inhibition of matriptase (unknown origin) using MeSO2-D-Cha-Gly-Arg-pNA as substrate
T2 sequence (Q9Y5Y6 whole entry): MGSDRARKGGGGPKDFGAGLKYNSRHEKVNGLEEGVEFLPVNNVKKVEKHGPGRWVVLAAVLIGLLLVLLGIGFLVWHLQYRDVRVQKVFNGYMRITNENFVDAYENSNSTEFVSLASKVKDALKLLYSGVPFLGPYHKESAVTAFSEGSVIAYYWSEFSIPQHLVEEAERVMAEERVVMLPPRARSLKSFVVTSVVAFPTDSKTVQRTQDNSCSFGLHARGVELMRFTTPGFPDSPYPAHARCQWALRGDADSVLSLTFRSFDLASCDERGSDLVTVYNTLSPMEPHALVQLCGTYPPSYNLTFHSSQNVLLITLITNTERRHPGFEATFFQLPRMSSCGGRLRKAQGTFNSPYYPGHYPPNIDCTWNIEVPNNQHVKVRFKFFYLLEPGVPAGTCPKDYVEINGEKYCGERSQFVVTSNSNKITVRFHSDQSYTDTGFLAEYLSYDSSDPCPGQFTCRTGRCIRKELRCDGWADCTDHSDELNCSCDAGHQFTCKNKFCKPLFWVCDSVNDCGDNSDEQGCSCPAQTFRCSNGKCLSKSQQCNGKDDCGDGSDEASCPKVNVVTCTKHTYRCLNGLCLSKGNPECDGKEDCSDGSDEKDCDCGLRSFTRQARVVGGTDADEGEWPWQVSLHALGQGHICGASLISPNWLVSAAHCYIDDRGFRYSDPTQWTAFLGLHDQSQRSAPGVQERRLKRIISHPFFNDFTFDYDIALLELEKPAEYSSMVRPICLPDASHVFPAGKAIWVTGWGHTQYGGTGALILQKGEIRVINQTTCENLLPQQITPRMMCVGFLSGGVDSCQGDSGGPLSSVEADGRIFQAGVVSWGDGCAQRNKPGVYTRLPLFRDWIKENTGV

COc1ccc(-c2cccc(S(=O)(=O)N[C@@H](Cc3cccc(C(=N)N)c3)C(=O)N3CCC(CCN)CC3)c2)c(OC)c1 showed a Ratio Ki (HEK293) of 20, a Ki (Prothrombin) of 30 nM and a Ki (Coagulation factor X) of 110 nM. The Ratio Ki (Homo sapiens [1]) was 20, the Ratio Ki (Homo sapiens [2]) was 20 and the Ki [3] was 310 nM. For the same compound, the Ki [4] was 1 nM.
